From US20040253251A1 (priority 2003, published 2004)
Like-named read-outs stand apart in the source and are kept apart here.

Columns and labels:
[1] = test system: ovarian tumor cells injected subcutaneously; details: for Number of live animals remaining in the groups after 30 days of treatment: 30 mice per group
Description: The survival time of mice after tumor injection and treatment was studied.
(§1) The biological composition comprising 10^8 cells per ml of activated and conditioned yeast cells of the strain Saccharomyces cerevisiae Hansen strain AS2.502 was prepared by the methods described in Section 5.1 and subsections therein
The animals were prepared in a similar manner as described in Section 8.1.
The mice injected with tumor cells were kept for 5 days and then were divided into 4 experimental groups of ten mice per group and one control group. The four experimental groups were triplicated (i.e., using a total of 120 mice in the experimental groups). In group 2AY, the mice received 0.3 ml of the biological composition once per day. In group 2NY, the mice received 0.3 ml of the untreated yeast cells once per day. In group 2CTX, the mice were injected subcutaneously with […] of cyclophosphamide (CTX) per kg body weight per day. In group 2CK1, the mice received 0.3 ml of physiological saline once per day.
(§2) The mice received the biological compositions, untreated yeast cells, CTX or saline on the same day as the tumor cells were transplanted. Mice in group 2CK2 also started receiving saline on the same day as the other four groups. The biological compositions, untreated yeast cells and saline were administered orally by a feeding tube and the CTX by subcutaneous injection for 30 consecutive days. The mice were observed over 6 months from the day of tumor inoculation and survival was recorded. The weight of the mice and the weight of the tumor were determined by standard techniques.

[2] = test system: ovarian tumor cells injected subcutaneously; details: 31st day from tumor inoculation; 30 consecutive days; AY/NY 0.3 ml oral once per day, CTX 30 mg/kg/day s.c.
Description: as §1
The mice injected with tumor cells were kept for 5 days and then were divided into 4 experimental groups of ten mice per group and one control group. The four experimental groups were triplicated (i.e., using a total of 120 mice in the experimental groups).
as §2, with “The mice” for “Mice”, “CK2” for “2CK2”, “The mice were observed over 6 months from the day of tumor inoculation and survival was recorded.” left out

[3] = test system: human ovarian cancer cells transplanted into mice; test: Survival over 6 months in mouse model of human ovarian cancer, Example 7; type: in vivo; details: for Number of live animals remaining in the groups after 30 days of treatment: 30 mice per group
Description: In group 2TSPA, the mice were injected intravenously with 1.5 mg of thiotepa (TSPA) per kg body weight per day.

[4] = test system: human ovarian cancer cells transplanted into mice; test: Tumor growth in mouse model of human ovarian cancer (orthotopic transplant), Example 6; type: in vivo; details: 31st day from tumor inoculation; 30 consecutive days; AY/NY 0.3 ml oral once per day, TSPA 1.5 mg/kg/day i.v.
Excerpt: Numerous animal studies have reported the use of orthotopic transplant technique in female mouse models to study the treating of ovarian cancer. See, for example, Animals for Experiments and Experimental Techniques, Chinese Medical Publisher, 1997. The use of orthotopic transplant technique has been highly successful in the development of mouse models of human ovarian cancer.
The human ovarian cancer sample is carefully selected before, during, and after surgery in order to ensure transplant occurred at the equivalent position in the mouse. The ovarian cancer sample is obtained from patients who have not received any radiation, chemotherapy, or immune enhancement treatment.
The mouse were starved for 24 hours before the surgery. The animals were generally anaesthetized. The barbiturates was first diluted in saline and then injected at 0.3 to 0.4 ml per animal, or 30 mg per kg body weight, into the abdomen of the mice. Under sterile conditions, a 1 cm long opening in the body cavity was cut along the right rib of the mice for engraftment of the tumor. About 10^6 units of tumor cells (about 2 mg tumor pieces per ml culture medium) were transplanted. Afterwards, the opening was sutured and the mice were put back into the cage. The animals were allowed to grow for three to five weeks or when the tumor grows to about 1 to 2 cm^3 in size. […]

[5] = 2 months after cessation of treatment
[6] = 3 months after cessation of treatment
[7] = 4 months after cessation of treatment
[8] = 5 months after cessation of treatment
[9] = 6 months after cessation of treatment
[10] = mice that survived the 6 months observation

**Q.** With `O=P1(N(CCCl)CCCl)NCCCO1` (centres unmarked) [CTX, cyclophosphamide] as the compound, how does the “Number of live animals remaining in the groups after 30 days of treatment” value (from here on “Number of live animals remaining”) ([1]; 1 month after cessation of treatment, 2AY/2NY 0.3 ml oral per day, 2CTX 305 mg/kg/day s.c. (30 mg)) read?
**A.** 30

**Q.** What about the “Number of live animals remaining” value [1, 5] of the same compound?
**A.** 30

**Q.** And the “Number of live animals remaining” value [1, 6]?
**A.** 23

**Q.** What about the “Number of live animals remaining” value [1, 7] of the same compound?
**A.** 14

**Q.** What about the “Number of live animals remaining” value [1, 8] of the same compound?
**A.** 9

**Q.** What about the “Number of live animals remaining” value [1, 9] of the same compound?
**A.** 0

**Q.** What about the “survival outcome during the experiment” value ([1]; in words, 6 months observation, 2NY 0.3 ml per day, 2CTX 30 mg/kg per day) of the same compound?
**A.** all died

**Q.** And the “mean weight of mice and standard deviation” value [1, 10]?
**A.** all animals dead

**Q.** What about the “mean weight of tumor nodules and standard deviation” value [1, 10] of the same compound?
**A.** all animals dead

**Q.** What about the “mean weight of mice and standard deviation” value [2] of the same compound?
**A.** 20 ± 2.3 g

**Q.** And the “mean weight of tumor nodules and standard deviation” value [2]?
**A.** 3.3 ± 1.4 g

**Q.** How did the “Number of live animals remaining” value ([3]; 0 month after cessation of treatment, 2AY/2NY 0.3 ml oral per day, 2TSPA 1.5 mg/kg/day i.v.) turn out when `S=P(N1CC1)(N1CC1)N1CC1` [TSPA, thiotepa] was run?
**A.** 30

**Q.** What about the “Number of live animals remaining” value ([3]; 1 month after cessation of treatment) of the same compound?
**A.** 24

**Q.** What about the “Number of live animals remaining” value [3, 5] of the same compound?
**A.** 7

**Q.** What about the “Number of live animals remaining” value [3, 6] of the same compound?
**A.** 2

**Q.** What about the “Number of live animals remaining” value [3, 7] of the same compound?
**A.** 0

**Q.** What about the “Number of live animals remaining” value [3, 8] of the same compound?
**A.** 0

**Q.** What about the “Number of live animals remaining” value [3, 9] of the same compound?
**A.** 0

**Q.** And the “survival outcome during the experiment” value ([3]; in words, 6 months observation, 2NY 0.3 ml per day, 2TSPA 1.5 of thiotepa per kg per day)?
**A.** all died

**Q.** And the “mean weight of mice and standard deviation” value [3, 10]?
**A.** all animals dead

**Q.** And the “mean weight of tumor nodules and standard deviation” value [3, 10]?
**A.** all animals dead

**Q.** And the “mean weight of mice and standard deviation” value [4]?
**A.** 21 ± 2.1 g

**Q.** What about the “mean weight of tumor nodules and standard deviation” value [4] of the same compound?
**A.** 3.1 ± 0.8 mg
